Source: patent US20230086702A1, “SUBSTITUTED 2-AMINO-PYRAZOLYL-[1,2,4]TRIAZOLO[1,5A]PYRIDINE DERIVATIVES AND USE THEREOF” (The Johns Hopkins University, priority 2019, published 2023)

What was measured:
DLK = molecular target: T1, DLK (Homo sapiens, UniProt Q12852); assay: DLK biochemical assay (TR-FRET, MKK7 phosphorylation); conditions: DLK catalytic domain, MKK7 substrate, 60 μM ATP
T1 construct: 10 nM DLK, catalytic domain, Carna Biosiences; purchased Carna Biosciences ('Carna Biosiences' [sic])
T1 sequence (Q12852 125-366 limits assumed): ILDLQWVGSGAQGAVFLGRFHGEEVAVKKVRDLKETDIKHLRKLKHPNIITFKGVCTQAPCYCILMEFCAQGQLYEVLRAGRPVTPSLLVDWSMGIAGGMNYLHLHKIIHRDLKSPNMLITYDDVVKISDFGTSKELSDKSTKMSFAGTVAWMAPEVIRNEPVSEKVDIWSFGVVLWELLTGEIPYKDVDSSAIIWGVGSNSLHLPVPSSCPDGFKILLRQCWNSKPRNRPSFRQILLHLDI
Protocol: (§1) DLK assay is a biochemical assay format designed to screen for inhibitors of DLK. Enzymatic activity of DLK is measured by monitoring phosphorylation of the physiological substrate MKK7 (MAP2K7, Dual specificity mitogen-activated protein kinase kinase 7). Phosphorylation is detected by a TR-FRET system whereby His-tagged MKK7 is labeled by a XL665-labeled anti-His antibody (FRET acceptor, emission 665 nm). DLK phosphorylates MKK7 at T275/S277, which is detected by an Eu-labeled anti-phospho-MKK7 (T275/S277) antibody (FRET donor, excitation 340 nm). Phosphorylation of MKK7 results in an increased TR-FRET signal (Ratio XL665-channel/Eu-channel) and inhibition of enzymatic activity of DLK decreases the TR-FRET signal.
All indicated concentrations are final concentrations.
(§2) Detection buffer: 25 mM Tris/HCl pH 7.5, 100 mM EDTA, 100 mM NaCl, 200 mM KF, 0.01% Tween 20, 1:500 Smart Block.

LZK = molecular target: T2, LZK (Homo sapiens, UniProt O43283); assay: LZK biochemical assay (TR-FRET, MKK7 phosphorylation); conditions: LZK catalytic domain, MKK7 substrate, 15 μM ATP
T2 construct: 10 nM LZK, catalytic domain, Carna Biosiences in assay buffer; purchased Carna Biosciences ('Carna Biosiences' [sic])
T2 sequence (O43283 168-409 limits assumed): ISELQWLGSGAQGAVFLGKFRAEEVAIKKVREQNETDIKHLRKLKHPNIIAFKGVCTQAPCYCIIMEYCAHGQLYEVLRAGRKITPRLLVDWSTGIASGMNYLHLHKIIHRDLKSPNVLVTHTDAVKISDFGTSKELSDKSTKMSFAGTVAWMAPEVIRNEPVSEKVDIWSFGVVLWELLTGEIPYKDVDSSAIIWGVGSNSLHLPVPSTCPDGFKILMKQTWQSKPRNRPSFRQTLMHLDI
Protocol: as §1, with “LZK” for “DLK”, “LZK.” for “DLK.”, “T275/S277” for “T275/S277,”
All indicated concentrations final concentrations.
as §2

Row | IC50 (DLK) | IC50 (LZK) | Structure (SMILES)
1 | 68 nM | 7.7 nM | CC[C@H](C)NC(=O)c1cc(-c2cnn(C3CCc4ccccc43)c2)cn2nc(N)nc12 (mixture of isomers) [Example I-13, 2-Amino-N-[(2S)-butan-2-yl]-6-[1-(2,3-dihydro-1H-inden-1-yl)-1H-pyrazol-4-yl][1,2,4]triazolo[1,5-a]pyridine-8-carboxamide]
2 | 22 nM | 3.3 nM | CC[C@H](C)NC(=O)c1cc(-c2cnn(C3CCOc4ccccc43)c2)cc2nc(N)nn12 (mixture of isomers) [Example I-16, 2-Amino-N-[(2S)-butan-2-yl]-7-[1-(3,4-dihydro-2H-chromen-4-yl)-1H-pyrazol-4-yl][1,2,4]triazolo[1,5-a]pyridine-5-carboxamide]
3 | 21 nM | 3.9 nM | CC[C@H](C)NC(=O)c1cc(-c2cnn(C3CCCc4ncccc43)c2)cc2nc(N)nn12 (mixture of isomers) [Example I-19, 2-Amino-N-[(2S)-butan-2-yl]-7-[1-(5,6,7,8-tetrahydroquinolin-5-yl)-1H-pyrazol-4-yl][1,2,4]triazolo[1,5-a]pyridine-5-carboxamide]
4 | 11 nM | 4.4 nM | CC[C@H](C)NC(=O)c1cc(-c2cnn(C3CCCc4cnccc43)c2)cc2nc(N)nn12 (mixture of isomers) [Example I-20, 2-Amino-N-[(2S)-butan-2-yl]-7-[1-(5,6,7,8-tetrahydroisoquinolin-5-yl)-1H-pyrazol-4-yl][1,2,4]triazolo[1,5-a]pyridine-5-carboxamide]
5 | 33 nM | 5.1 nM | CC[C@H](C)NC(=O)c1cc(-c2cnn(C3CCCc4ccncc43)c2)cc2nc(N)nn12 (mixture of isomers) [Example I-21, 2-Amino-N-[(2S)-butan-2-yl]-7-[1-(5,6,7,8-tetrahydroisoquinolin-8-yl)-1H-pyrazol-4-yl][1,2,4]triazolo[1,5-a]pyridine-5-carboxamide]
6 | 27 nM | 13 nM | CC[C@H](C)NC(=O)c1cc(-c2cnn(C3CCCc4cccnc43)c2)cc2nc(N)nn12 (mixture of isomers) [Example I-22, 2-Amino-N-[(2S)-butan-2-yl]-7-[1-(5,6,7,8-tetrahydroquinolin-8-yl)-1H-pyrazol-4-yl][1,2,4]triazolo[1,5-a]pyridine-5-carboxamide]
7 | 2.7 nM | 23 nM | CC[C@H](C)NC(=O)c1cc(-c2cnn(C(c3ccccc3)C(C)C)c2)cc2nc(N)nn12 (mixture of isomers) [Example I-24, 2-Amino-N-[(2S)-butan-2-yl]-7-{1-[2-methyl-1-phenylpropyl]-1H-pyrazol-4-yl}[1,2,4]triazolo[1,5-a]pyridine-5-carboxamide]
8 | 7.7 nM | 390 nM | CC[C@H](C)NC(=O)c1cc(-c2cnn(C(c3ccccc3)C3CCC3)c2)cn2nc(N)nc12 (mixture of isomers) [Example I-27, 2-Amino-N-[(2S)-butan-2-yl]-6-{1-[cyclobutyl(phenyl)methyl]-1H-pyrazol-4-yl}[1,2,4]triazolo[1,5-a]pyridine-8-carboxamide]
9 | 9.2 nM | 380 nM | CC[C@H](C)NC(=O)c1cc(-c2cnn(C(c3ccccc3)C3(C)CC3)c2)cn2nc(N)nc12 (mixture of isomers) [Example I-28, 2-Amino-N-[(2S)-butan-2-yl]-6-{1[(1-methylcyclopropyl)(phenyl)methyl]-1H-pyrazol-4-yl}[1,2,4]triazolo[1,5-a]pyridine-8-carboxamide]
10 | 3.8 nM | 150 nM | CC[C@H](C)NC(=O)c1cc(-c2cnn(C(c3ccccc3)C3CC(F)(F)C3)c2)cn2nc(N)nc12 (mixture of isomers) [Example I-31, 2-Amino-N-[(2S)-butan-2-yl]-6-{1-[(3,3-difluorocyclobutyl)(phenyl)methyl]-1H-pyrazol-4-yl}[1,2,4]triazolo[1,5-a]pyridine-8-carboxamide]
11 | 9.5 nM | 520 nM | CC[C@H](C)NC(=O)c1cc(-c2cnn(C(c3ccccc3)C(C)(C)C)c2)cn2nc(N)nc12 (mixture of isomers) [Example I-34, 2-Amino-N-[(2S)-butan-2-yl]-6-{1-[2,2-dimethyl-1-phenylpropyl]-1H-pyrazol-4-yl}[1,2,4]triazolo[1,5-a]pyridine-8-carboxamide]
12 | 3.6 nM | 240 nM | CC[C@H](C)NC(=O)c1cc(-c2cnn(C(CC(F)(F)F)c3ccccc3)c2)cn2nc(N)nc12 (mixture of isomers) [Example I-37, 2-Amino-N-[(2S)-butan-2-yl]-6-{1-[3,3,3-trifluoro-1-phenylpropyl]-1H-pyrazol-4-yl}[1,2,4]triazolo[1,5-a]pyridine-8-carboxamide]
13 | 4.5 nM | 67 nM | CC[C@H](C)NC(=O)c1cc(-c2cnn(C(COC)c3ccccc3)c2)cn2nc(N)nc12 (mixture of isomers) [Example I-40, 2-Amino-N-[(2S)-butan-2-yl]-6-[1-(2-methoxy-1-phenylethyl)-1H-pyrazol-4-yl][1,2,4]triazolo[1,5-a]pyridine-8-carboxamide]
14 | 2.9 nM | 66 nM | CC[C@H](C)NC(=O)c1cc(-c2cnn(C(c3ccc(F)cc3)C(C)C)c2)cn2nc(N)nc12 (mixture of isomers) [Example I-43, 2-Amino-N-[(2S)-butan-2-yl]-6-{1-[1-(4-fluorophenyl)-2-methylpropyl]-1H-pyrazol-4-yl}[1,2,4]triazolo[1,5-a]pyridine-8-carboxamide]
15 | 3.8 nM | 40 nM | CCC(c1ccc(N2CCOCC2)cc1)n1cc(-c2cc(C(=O)N[C@@H](C)CC)c3nc(N)nn3c2)cn1 (mixture of isomers) [Example I-47, 2-Amino-N-[(2S)-butan-2-yl]-6-(1-{1-[4-(morpholin-4-yl)phenyl]propyl}-1H-pyrazol-4-yl)[1,2,4]triazolo[1,5-a]pyridine-8-carboxamide]
16 | 1.8 nM | 8.7 nM | CC[C@H](C)NC(=O)c1cc(-c2cnn(C(c3ccccc3)C3CCOCC3)c2)cc2nc(N)nn12 (mixture of isomers) [Example I-51, 2-Amino-N-[(2S)-butan-2-yl]-7-{1-[phenyl(tetrahydro-2H-pyran-4-yl)methyl]-1H-pyrazol-4-yl}[1,2,4]triazolo[1,5-a]pyridine-5-carboxamide]
17 | 6.7 nM | 49 nM | CCC(c1ccc(F)cn1)n1cc(-c2cc(C(=O)N[C@@H](C)CC)c3nc(N)nn3c2)cn1 (mixture of isomers) [Example I-55, 2-Amino-N-[(2S)-butan-2-yl]-6-{1-[1-(5-fluoropyridin-2-yl)propyl]-1H-pyrazol-4-yl}[1,2,4]triazolo[1,5-a]pyridine-8-carboxamide]
18 | 1.6 nM | 16 nM | CCC(c1cncc(Cl)c1)n1cc(-c2cc(C(=O)N[C@@H](C)CC)c3nc(N)nn3c2)cn1 (mixture of isomers) [Example I-58, 2-Amino-N-[(2S)-butan-2-yl]-6-{1-[1-(5-chloropyridin-3-yl)propyl]-1H-pyrazol-4-yl}[1,2,4]triazolo[1,5-a]pyridine-8-carboxamide]
19 | 0.6 nM | 3.3 nM | CC[C@H](C)NC(=O)c1cc(-c2cnn(C(c3cncc(Cl)c3)C(C)C)c2)cn2nc(N)nc12 (mixture of isomers) [Example I-61, 2-Amino-N-[(2S)-butan-2-yl]-6-{1-[1-(5-chloropyridin-3-yl)-2-methylpropyl]-1H-pyrazol-4-yl}[1,2,4]triazolo[1,5-a]pyridine-8-carboxamide]
20 | 1.7 nM | 7 nM | CCC(c1ccc(C(F)F)nc1)n1cc(-c2cc(C(=O)N[C@@H](C)CC)c3nc(N)nn3c2)cn1 (mixture of isomers) [Example I-64, 2-Amino-N-[(2S)-butan-2-yl]-6-(1-{1-[6-(difluoromethyl)pyridin-3-yl]propyl}-1H-pyrazol-4-yl)[1,2,4]triazolo[1,5-a]pyridine-8-carboxamide]
